The source of these data is ChEMBL document CHEMBL1151511, “Structure-based design of an inhibitor modeled at the substrate active site of aldose reductase” (Bioorg Med Chem Lett, 1997).

For assay [1], the target named is T1, Aldo-keto reductase family 1 member B1 (Bos taurus, UniProt P16116). Briefly: Tested for inhibition of bovine lens Aldose reductase (ALR2), expressed as IC50.
Assay [2] concerns the target T1, Aldo-keto reductase family 1 member B1. In words: Inhibitory activity of compound against modified enzyme form of S-glutathionyl Aldose reductase; Inactive.
Assay [3] has the same target. In words: Inhibitory activity of compound against modified enzyme form of S-glutathionyl Aldose reductase.

Each structure is given as a SMILES string.

Turning to `O=C(O)Cn1nc2c(cc1=O)CCc1ccccc1-2`, the IC50 in assay [1] was 12 µM; in assay [2], “Not Active”.
`O=C(O)Cn1nc2c(c(Cc3nc4cc(C(F)(F)F)ccc4s3)c1=O)CCc1ccccc1-2`: the concentration for half-maximal inhibition (IC50) in assay [1] was found to be 0.15 µM; in assay [3] it was 17 µM.
